Measured values from publication PMC9505425, “Targeting of the Mitochondrial TET1 Protein by Pyrrolo[3,2-b]pyrrole Chelators” (International Journal of Molecular Sciences, 2022).
Several values for one entry are separate records, joined by “and”; a condition that tells them apart may be missing. Equal values may be shown once.

Tests used:
Type in all cases: cell-based, human
U-118 MG cells = test: MTT cytotoxicity assay, U-118 MG; details: 48 h
Method: (§1) The effects of the tested compounds 1–6 on HF-P4, U-118 MG, H1299, BT-20, and Caov-3 cell lines were evaluated by the MTT assay during 48 h treatment (Table 2 and Tables S2–S31). In all tested compounds, we recognized a difference in cytotoxicity between healthy cells (HF-P4) and cancer cell lines (BT-20, Caov-3, and H-1299). […] In the case of ovarian cancer, the authors discovered oncogenic and poor prognosis roles of TET1 in epithelial ovarian carcinoma (EOC). TET1 is believed to demethylate the epigenome and activate numerous oncogenic pathways in EOC. The aforementioned study presents a new mechanism where TET1 contributes to tumor development through collaboration with CK2α [21]. The overexpression of the TET1 protein was also found in triple negative breast cancer and was associated with an activation of PI3K/mTOR pathway and decreased overall survival.
(§2) A human glioblastoma cell line (U118-MG) and a human non-small-cell lung carcinoma cell line (H1299) were used for the cytotoxicity assay (MTT). Both cell lines were generously supplied by Dr. M. Masařik, PhD, Department of Pathological physiology, Masaryk University, Czech Republic. U118-MG cells were cultivated under standard conditions in Dulbecco’s modified Eagle’s medium (ATCC, Manassas, VA, USA) supplemented with 10% FBS and streptomycin (100 μg/mL) at 37 °C at a 5% CO2 atmosphere. H1299 cells were cultivated under standard conditions in RPMI 1640 (BioTech, Prague, Czech Republic) medium supplemented with 10% FBS and streptomycin (100 μg/mL) at 37 °C at a 5% CO2 atmosphere.
(§3) For the cytotoxicity assay, we used the following cell lines: human glioblastoma cell line U118-MG, human mammary gland/breast cell line BT-20, human ovary adenocarcinoma cell line Caov-3, and non-small-cell lung carcinoma H-1299. As previously mentioned, these cell lines contain a high level of the TET1 protein, which corresponds to a lower overall survival. In addition to these cell cultures, we used the human dermal fibroblast cell line HF-P4 as a healthy control. Determination of cytotoxicity was performed using the MTT [3-(4,5-dimethylthiazol-2-yl)-2,5-diphenyltetrazolium bromide] colorimetric assay. Viable cells from each cell line were cultured in 96-well plates (VWR, Stříbrná Skalice, Czech Republic) at a density of 1.0 × 10^5 cells per well and allowed to grow for 24 h in 200 μL of recommended medium. After a 1-day incubation, the medium was replaced with solutions of compounds 1–6 at concentration ranges of 0.1–20 μM. Each concentration was measured four times within one test, and the entire test was repeated three times. Tested compounds 1–6 were dissolved in DMSO and then diluted with corresponding medium to a final volume of 200 μL (maximum 1% DMSO). After 48 h exposure, cells were treated with 175 μL of MTT solution (P-LAB, Prague, Czech Republic) for 2 h. In the next step, MTT solution was removed, and 125 μL of DMSO (Penta, Prague, Czech Republic) was added to solubilize dark crystals of formazan formed in intact cells, and absorbance was measured at 570 nm by the enzyme-linked immunoabsorbent assay reader Infinite® 200 PRO (Tecan, Männedorf, Switzerland). The final DMSO concentration was smaller than 1% (v/v). The absorbance of untreated cells was considered 100%, and IC50 values were calculated by the GraphPad Prism 8 software. As a parameter for cytotoxicity, we used a concentration that inhibits 50% of cell growth (IC50).

H-1299 cells = test: MTT cytotoxicity assay, H-1299
Method: as §1, §2, §3

HF-P4 cells = test: MTT cytotoxicity assay, HF-P4; details: 48 h; for Cell viability %: repeats
Method: as §1
(§4) A human dermal fibroblast cell line was used for intracellular localization and cytotoxicity assay (MTT). Human fibroblast cells HF-P4 (human fibroblasts—patient 4) are normal dermal fibroblasts, which were obtained from the residual skin of a healthy patient who underwent plastic surgery (with informed consent of the patient). HF-P4 cell lines were obtained from the Department of Plastic Surgery, Third Faculty of Medicine, Charles University and University Hospital Královské Vinohrady, Prague, Czech Republic, as described by Szabo et al., 2011, and Dvořánková et al., 2019 [88, 89], and have been processed in accordance with the relevant local ethics committee and the Declaration of Helsinki protection of patients’ rights and benefits with written and signed informed consent of each patient. Cells were cultivated under standard conditions in Dulbecco’s modified Eagle’s medium (ATCC, Manassas, VA, USA), supplemented with 10% FBS and streptomycin (100 μg/mL) at 37 °C at a 5% CO2 atmosphere.
as §3

[1] = MTT cytotoxicity assay, HF-P4; details: human, HF-P4 normal human dermal fibroblasts, repeats, read-out: Cell viability %
Method: as §1, §4, §3

Cc1ccc(-n2c(-c3ccc(C(=O)N/N=C/c4ccccc4O)cc3)cc3c2cc(-c2ccc(C(=O)N/N=C/c4ccccc4O)cc2)n3-c2ccc(C)cc2)cc1 [Compound 6]
viability at 0.1 µM (U-118 MG cells; Homo sapiens, U-118-MG, U-118 MG, 100 nM, repeats, read-out: Cell viability %): 98.1% | viability at 0.5 µM (U-118 MG cells; Homo sapiens, U-118-MG, U-118 MG, 500 nM, repeats, read-out: Cell viability %): 73.5% | viability at 0.75 µM (U-118 MG cells; Homo sapiens, U-118-MG, U-118 MG, 750 nM, repeats, read-out: Cell viability %): 67.2% | viability at 1 µM (U-118 MG cells; Homo sapiens, U-118-MG, U-118 MG, 1 uM, repeats, read-out: Cell viability %): 68.4% | viability at 2.5 µM (U-118 MG cells; Homo sapiens, U-118-MG, U-118 MG, 2.5 uM, repeats, read-out: Cell viability %): 63% | viability at 5 µM (U-118 MG cells; Homo sapiens, U-118-MG, U-118 MG, 5 uM, repeats, read-out: Cell viability %): 59% | viability at 7.5 µM (U-118 MG cells; Homo sapiens, U-118-MG, U-118 MG, 7.5 uM, repeats, read-out: Cell viability %): 45.9% | viability at 10 µM (U-118 MG cells; Homo sapiens, U-118-MG, U-118 MG, 10 uM, repeats, read-out: Cell viability %): 49.6% | viability at 15 µM (U-118 MG cells; Homo sapiens, U-118-MG, U-118 MG, 15 uM, repeats, read-out: Cell viability %): 28% | viability at 20 µM (U-118 MG cells; Homo sapiens, U-118-MG, U-118 MG, 20 uM, repeats, read-out: Cell viability %): 22.5% | IC50 (U-118 MG cells; Homo sapiens, U-118-MG, MTT): 8.12 µM | Cell viability % (U-118 MG cells; U-118 MG, 100 nM, repeats, 0.1 µM): 91.37% and 92.92% | Cell viability % (U-118 MG cells; U-118 MG, 500 nM, repeats, 0.5 µM): 83.7778% and 86.55% | Cell viability % (U-118 MG cells; U-118 MG, 750 nM, repeats, 0.75 µM): 73.07% and 81.93% | Cell viability % (U-118 MG cells; U-118 MG, 1 uM, repeats): 80.41% and 81.53% | Cell viability % (U-118 MG cells; U-118 MG, 2.5 uM, repeats): 69.75% and 76.68% | Cell viability % (U-118 MG cells; U-118 MG, 5 uM, repeats): 63.22% and 58.23% | Cell viability % (U-118 MG cells; U-118 MG, 7.5 uM, repeats): 45.4% and 56.877% | Cell viability % (U-118 MG cells; U-118 MG, 10 uM, repeats): 51.17% and 52.19% | Cell viability % (U-118 MG cells; U-118 MG, 15 uM, repeats): 29.06% and 32.78% | Cell viability % (U-118 MG cells; U-118 MG, 20 uM, repeats): 18.64% and 22.51% | Cell viability % (H-1299 cells; H-1299, 100 nM, 48 h, repeats, 0.1 µM): 77.16% and 73.27% | Cell viability % (H-1299 cells; H-1299, 500 nM, 48 h, repeats, 0.5 µM): 69.88% and 74.98% | Cell viability % (H-1299 cells; H-1299, 750 nM, 48 h, repeats, 0.75 µM): 83.61% and 74.75% | Cell viability % (H-1299 cells; H-1299, 1 uM, 48 h, repeats, 1 µM): 86.38% and 69.89% and 61.2% | Cell viability % (H-1299 cells; H-1299, 2.5 uM, 48 h, repeats, 2.5 µM): 77.45% and 63.25% and 56.68% | Cell viability % (H-1299 cells; H-1299, 5 uM, 48 h, repeats, 5 µM): 69.4% and 77.63% and 53.79% | Cell viability % (H-1299 cells; H-1299, 7.5 uM, 48 h, repeats, 7.5 µM): 53.98% and 50.36% | Cell viability % (H-1299 cells; H-1299, 10 uM, 48 h, repeats, 10 µM): 52.11% and 46.79% | Cell viability % (H-1299 cells; H-1299, 15 uM, 48 h, repeats, 15 µM): 36.42% and 29.24% | Cell viability % (H-1299 cells; H-1299, 20 uM, 48 h, repeats, 20 µM): 33.42% and 31.6% | viability at 0.1 µM (H-1299 cells; Homo sapiens, NCI-H1299, 48 h, H-1299, 100 nM, repeats, read-out: Cell viability %): 74.6% | viability at 0.5 µM (H-1299 cells; Homo sapiens, NCI-H1299, 48 h, H-1299, 500 nM, repeats, read-out: Cell viability %): 82% | viability at 0.75 µM (H-1299 cells; Homo sapiens, NCI-H1299, 48 h, H-1299, 750 nM, repeats, read-out: Cell viability %): 90.2% | viability at 7.5 µM (H-1299 cells; Homo sapiens, NCI-H1299, 48 h, H-1299, 7.5 uM, repeats, read-out: Cell viability %): 63.7% | viability at 10 µM (H-1299 cells; Homo sapiens, NCI-H1299, 48 h, H-1299, 10 uM, repeats, read-out: Cell viability %): 54.8% | viability at 15 µM (H-1299 cells; Homo sapiens, NCI-H1299, 48 h, H-1299, 15 uM, repeats, read-out: Cell viability %): 38.7% | viability at 20 µM (H-1299 cells; Homo sapiens, NCI-H1299, 48 h, H-1299, 20 uM, repeats, read-out: Cell viability %): 34.4% | IC50 (H-1299 cells; Homo sapiens, NCI-H1299, MTT, 48 h): 14.6 µM | Cell viability % (HF-P4 cells; HF-P4, 100 nM, 0.1 µM): 114.4851% and 90.24% and 95.4% | Cell viability % (HF-P4 cells; HF-P4, 500 nM, 0.5 µM): 95.79% and 101.8289% | Cell viability % (HF-P4 cells; HF-P4, 750 nM, 0.75 µM): 92.17% and 90.68% | Cell viability % (HF-P4 cells; HF-P4, 1 uM, 1 µM): 84.11% and 85.78% | Cell viability % (HF-P4 cells; HF-P4, 2.5 uM, 2.5 µM): 75.58% and 74.71% | Cell viability % (HF-P4 cells; HF-P4, 5 uM, 5 µM): 73.0472% and 65.6% | Cell viability % (HF-P4 cells; HF-P4, 7.5 uM, 7.5 µM): 61.49% and 69.35% | Cell viability % (HF-P4 cells; HF-P4, 10 uM, 10 µM): 61.41% and 64.7001% | Cell viability % (HF-P4 cells; HF-P4, 15 uM, 15 µM): 54.9% and 58.15% | Cell viability % (HF-P4 cells; HF-P4, 20 uM, 20 µM): 42.62% and 43.54% | IC50 (HF-P4 cells; Homo sapiens, MTT): 16.4 µM | viability at 48 h, 0.5 µM ([1]; HF-P4, 500 nM): 103% | viability at 48 h, 0.75 µM ([1]; HF-P4, 750 nM): 97.8% | viability at 48 h, 1 µM ([1]; HF-P4, 1 uM): 84.4% | viability at 48 h, 2.5 µM ([1]; HF-P4, 2.5 uM): 94.5% | viability at 48 h, 5 µM ([1]; HF-P4, 5 uM): 84.3% | viability at 48 h, 7.5 µM ([1]; HF-P4, 7.5 uM): 62.3% | viability at 48 h, 10 µM ([1]; HF-P4, 10 uM): 66.1% | viability at 48 h, 15 µM ([1]; HF-P4, 15 uM): 62.5% | viability at 48 h, 20 µM ([1]; HF-P4, 20 uM): 48%
